This assay relates to HIV-1 (RF). In words: HIV RNA assay: microplate based compound evaluation in HIV-1 infected MT-2 cells. It counts as cell-based. As to conditions: Human immunodeficiency virus 1, MT2, 72 h; HIV-1 (RF) infected MT-2 cells, 3 days culture; value used to standardize the virus inoculum; read-out: IC90 (concentration of compound required to reduce the HIV RNA level by 90%). As for the experimental part: DNA Plasmids and in vitro RNA Transcripts:
Plasmid pDAB 72 containing both gag and pol sequences of BH10 (bp 113-1816) cloned into PTZ 19R was prepared according to Erickson-Viitanen et al. AIDS Research and Human Retroviruses 1989, 5, 577. The plasmid was linearized with Bam HI prior to the generation of in vitro RNA transcripts using the Riboprobe Gemini system II kit (Promega) with T7 RNA polymerase. Synthesized RNA was purified by treatment with RNase free DNAse (Promega), phenol-chloroform extraction, and ethanol precipitation. RNA transcripts were dissolved in water, and stored at −70° C. The concentration of RNA was determined from the A260.
Biotinylated capture probes were purified by HPLC after synthesis on an Applied Biosystems (Foster City, Calif.) DNA synthesizer by addition of biotin to the 5′ terminal end of the oligonucleotide, using the biotin-phosphoramidite reagent of Cocuzza, Tet. Lett. 1989, 30, 6287. […]
MT-2 and MT-4 cells were maintained in RPMI 1640 supplemented with 5% fetal calf serum (FCS) for MT-2 cells or 10% FCS for MT-4 cells, 2 mM L-glutamine and 50 μg/mL gentamycin, all from Gibco. […] Infectious titers of HIV-1(RF) stocks were 1-3×10^7 PFU (plaque forming units)/mL as measured by plaque assay on MT-2 cells (see below). […]

SMILES strings stand for the structures. ≈ marks a conversion by molar mass, not a printed value.

`Nc1ccn([C@H]2CC[C@@H](CO)O2)c(=O)n1` [ddC, 2′,3′-dideoxycytidine]: the IC90 is 0.2 mg/L (≈ 0.947 µM).

Source of the values: patent US20040063734A1, “4,4-Disubstituted-3,4-dihydro-2 (1H)-quinazoliniones useful as HIV reverse transcriptase inhibitors” (priority 2002, published 2004).
